In patent US12617779B2, “Self degradation-type CDK9 inhibitor prodrug and liposome encapsulating same” (Sumitomo Pharma Co., Ltd., priority 2021, dated 2026):

Assay: Evaluation of conversion rate to active form in buffer solution (Experimental Example 1)
Assay type: physicochemical
Conditions: for Production rate of Alvocidib / Residual rate: 25 umol/L in buffer solution; for Stability in buffer solution at pH 5: pH 5, 37° C., up to 2 or 3 hours; for Conversion to Alvocidib at pH 7.4: pH 7.4, 37° C., up to 3 hours
Outline: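 25 umol/L cpd, 37° C; 50 mM citrate pH 5.0/5.5, 50 mM phosphate pH 6.0/6.5/7.0/7.4. HPLC at 0–3 h: residual rate and Alvocidib production rate.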

Structure (SMILES): CN1CC[C@H](c2c(OC(=O)N(C)CC3CCCCN3)cc(O)c3c(=O)cc(-c4ccccc4Cl)oc23)[C@H](O)C1 (stereo partly drawn) [Example 8, 2-(2-chlorophenyl)-5-hydroxy-8-[(3S,4R)-3-hydroxy-1-methylpiperidin-4-yl]-4-oxo-4H-1-benzopyran-7-yl methyl[(piperidin-2-yl)methyl]carbamate]
- Production rate of Alvocidib (pH5.0, 0 hr, 37° C.): 0.7%
- Residual rate (pH5.0, 0 hr, 37° C.): 95.4%
- Stability in buffer solution at pH 5: stable
- Production rate of Alvocidib (pH5.0, 0.5 hr, 37° C.): 1.2%
- Residual rate (pH5.0, 0.5 hr, 37° C.): 95.1%
- Production rate of Alvocidib (pH5.0, 1 hr, 37° C.): 1.6%
- Residual rate (pH5.0, 1 hr, 37° C.): 95.0%
- Production rate of Alvocidib (pH5.0, 2 hr, 37° C.): 2.0%
- Residual rate (pH5.0, 2 hr, 37° C.): 94.7%
- Production rate of Alvocidib (pH5.5, 0 hr, 37° C.): 0.5%
- Residual rate (pH5.5, 0 hr, 37° C.): 95.9%
- Production rate of Alvocidib (pH5.5, 0.5 hr, 37° C.): 1.6%
- Residual rate (pH5.5, 0.5 hr, 37° C.): 95.0%
- Production rate of Alvocidib (pH5.5, 1 hr, 37° C.): 2.5%
- Residual rate (pH5.5, 1 hr, 37° C.): 94.3%
- Production rate of Alvocidib (pH5.5, 2 hr, 37° C.): 3.5%
- Residual rate (pH5.5, 2 hr, 37° C.): 93.4%
- Production rate of Alvocidib (pH6.0, 0 hr, 37° C.): 0.8%
- Residual rate (pH6.0, 0 hr, 37° C.): 95.7%
- Production rate of Alvocidib (pH6.0, 0.5 hr, 37° C.): 4.4%
- Residual rate (pH6.0, 0.5 hr, 37° C.): 92.1%
- Production rate of Alvocidib (pH6.0, 1 hr, 37° C.): 7.3%
- Residual rate (pH6.0, 1 hr, 37° C.): 89.4%
- Production rate of Alvocidib (pH6.0, 2 hr, 37° C.): 10.3%
- Residual rate (pH6.0, 2 hr, 37° C.): 86.5%
- Production rate of Alvocidib (pH6.5, 0 hr, 37° C.): 1.5%
- Residual rate (pH6.5, 0 hr, 37° C.): 95.0%
- Production rate of Alvocidib (pH6.5, 0.5 hr, 37° C.): 11.2%
- Residual rate (pH6.5, 0.5 hr, 37° C.): 85.3%
- Production rate of Alvocidib (pH6.5, 1 hr, 37° C.): 18.9%
- Residual rate (pH6.5, 1 hr, 37° C.): 77.7%
- Production rate of Alvocidib (pH6.5, 2 hr, 37° C.): 25.6%
- Residual rate (pH6.5, 2 hr, 37° C.): 71.2%
- Production rate of Alvocidib (pH7.0, 0 hr, 37° C.): 4.0%
- Residual rate (pH7.0, 0 hr, 37° C.): 92.5%
- Production rate of Alvocidib (pH7.0, 0.5 hr, 37° C.): 27.3%
- Residual rate (pH7.0, 0.5 hr, 37° C.): 69.3%
- Production rate of Alvocidib (pH7.0, 1 hr, 37° C.): 40.0%
- Residual rate (pH7.0, 1 hr, 37° C.): 56.7%
- Production rate of Alvocidib (pH7.0, 2 hr, 37° C.): 48.2%
- Residual rate (pH7.0, 2 hr, 37° C.): 49.0%
- Production rate of Alvocidib (pH7.4, 0 hr, 37° C.): 9.7%
- Residual rate (pH7.4, 0 hr, 37° C.): 86.7%
- Conversion to Alvocidib at pH 7.4: rapidly converted to Alvocidib
- Production rate of Alvocidib (pH7.4, 0.5 hr, 37° C.): 45.1%
- Residual rate (pH7.4, 0.5 hr, 37° C.): 51.4%
- Production rate of Alvocidib (pH7.4, 1 hr, 37° C.): 55.2%
- Residual rate (pH7.4, 1 hr, 37° C.): 41.7%
- Production rate of Alvocidib (pH7.4, 2 hr, 37° C.): 58.2%
- Residual rate (pH7.4, 2 hr, 37° C.): 38.4%

Structure (SMILES): CCCN(CC1CCCCN1)C(=O)Oc1cc(O)c2c(=O)cc(-c3ccccc3Cl)oc2c1[C@H]1CCN(C)C[C@H]1O (stereo partly drawn) [Example 9, 2-(2-chlorophenyl)-5-hydroxy-8-[(3S,4R)-3-hydroxy-1-methylpiperidin-4-yl]-4-oxo-4H-1-benzopyran-7-yl [(piperidin-2-yl)methyl]propylcarbamate]
- Efficiency of conversion to Alvocidib (buffer solution, 37° C.): higher efficiency
- Production rate of Alvocidib (pH5.0, 0 hr, 37° C.): 1.4%
- Residual rate (pH5.0, 0 hr, 37° C.): 96.2%
- Stability in buffer solution at pH 5: stable
- Production rate of Alvocidib (pH5.0, 0.5 hr, 37° C.): 1.7%
- Residual rate (pH5.0, 0.5 hr, 37° C.): 95.9%
- Production rate of Alvocidib (pH5.0, 1 hr, 37° C.): 2.1%
- Residual rate (pH5.0, 1 hr, 37° C.): 95.6%
- Production rate of Alvocidib (pH5.0, 2 hr, 37° C.): 2.8%
- Residual rate (pH5.0, 2 hr, 37° C.): 94.9%
- Production rate of Alvocidib (pH5.0, 3 hr, 37° C.): 3.6%
- Residual rate (pH5.0, 3 hr, 37° C.): 94.0%
- Production rate of Alvocidib (pH5.5, 0 hr, 37° C.): 1.4%
- Residual rate (pH5.5, 0 hr, 37° C.): 96.2%
- Production rate of Alvocidib (pH5.5, 0.5 hr, 37° C.): 2.4%
- Residual rate (pH5.5, 0.5 hr, 37° C.): 95.2%
- Production rate of Alvocidib (pH5.5, 1 hr, 37° C.): 3.4%
- Residual rate (pH5.5, 1 hr, 37° C.): 94.4%
- Production rate of Alvocidib (pH5.5, 2 hr, 37° C.): 5.2%
- Residual rate (pH5.5, 2 hr, 37° C.): 92.5%
- Production rate of Alvocidib (pH5.5, 3 hr, 37° C.): 7.2%
- Residual rate (pH5.5, 3 hr, 37° C.): 90.5%
- Production rate of Alvocidib (pH6.0, 0 hr, 37° C.): 1.5%
- Residual rate (pH6.0, 0 hr, 37° C.): 96.2%
- Production rate of Alvocidib (pH6.0, 0.5 hr, 37° C.): 4.9%
- Residual rate (pH6.0, 0.5 hr, 37° C.): 92.9%
- Production rate of Alvocidib (pH6.0, 1 hr, 37° C.): 8.2%
- Residual rate (pH6.0, 1 hr, 37° C.): 89.5%
- Production rate of Alvocidib (pH6.0, 2 hr, 37° C.): 14.4%
- Residual rate (pH6.0, 2 hr, 37° C.): 83.0%
- Production rate of Alvocidib (pH6.0, 3 hr, 37° C.): 20.8%
- Residual rate (pH6.0, 3 hr, 37° C.): 76.6%
- Production rate of Alvocidib (pH6.5, 0 hr, 37° C.): 1.7%
- Residual rate (pH6.5, 0 hr, 37° C.): 95.9%
- Production rate of Alvocidib (pH6.5, 0.5 hr, 37° C.): 11.2%
- Residual rate (pH6.5, 0.5 hr, 37° C.): 86.4%
- Production rate of Alvocidib (pH6.5, 1 hr, 37° C.): 20.2%
- Residual rate (pH6.5, 1 hr, 37° C.): 77.3%
- Production rate of Alvocidib (pH6.5, 2 hr, 37° C.): 35.4%
- Residual rate (pH6.5, 2 hr, 37° C.): 61.9%
- Production rate of Alvocidib (pH6.5, 3 hr, 37° C.): 49.0%
- Residual rate (pH6.5, 3 hr, 37° C.): 48.4%
- Production rate of Alvocidib (pH7.0, 0 hr, 37° C.): 2.2%
- Residual rate (pH7.0, 0 hr, 37° C.): 95.4%
- Production rate of Alvocidib (pH7.0, 0.5 hr, 37° C.): 24.1%
- Residual rate (pH7.0, 0.5 hr, 37° C.): 73.1%
- Production rate of Alvocidib (pH7.0, 1 hr, 37° C.): 42.0%
- Residual rate (pH7.0, 1 hr, 37° C.): 55.1%
- Production rate of Alvocidib (pH7.0, 2 hr, 37° C.): 66.1%
- Residual rate (pH7.0, 2 hr, 37° C.): 31.0%
- Production rate of Alvocidib (pH7.0, 3 hr, 37° C.): 81.0%
- Residual rate (pH7.0, 3 hr, 37° C.): 16.7%
- Production rate of Alvocidib (pH7.4, 0 hr, 37° C.): 3.4%
- Residual rate (pH7.4, 0 hr, 37° C.): 94.3%
- Conversion to Alvocidib at pH 7.4: rapidly converted to Alvocidib
- Production rate of Alvocidib (pH7.4, 0.5 hr, 37° C.): 48.7%
- Residual rate (pH7.4, 0.5 hr, 37° C.): 48.7%
- Production rate of Alvocidib (pH7.4, 1 hr, 37° C.): 73.6%
- Residual rate (pH7.4, 1 hr, 37° C.): 23.7%
- Production rate of Alvocidib (pH7.4, 2 hr, 37° C.): 92.4%
- Residual rate (pH7.4, 2 hr, 37° C.): 5.6%
- Production rate of Alvocidib (pH7.4, 3 hr, 37° C.): 96.7%
- Residual rate (pH7.4, 3 hr, 37° C.): 1.1%
